From patent publication US20050058745A1, “Use of Labiatae herb preparations for extending the flavor shelf life of malt beverages” (priority 2003, published 2005) come the findings set out here.

Assay [1] in a line: Trained panel flavor evaluation, light beer, forced aging. To be noted: 5 ppm, 6 days 32° C.; for preservation of fresh flavor (words): light beer. How it is done:
Separate solution of pure rosmarinic acid, pure carnosol and pure carnosic acid were prepared in ethanol as previously.
The light beer used in this study was approximately one month old and was purchased at a local market. Bottle additions were done as in Example 1.
The bottles were placed in a heated room at 32±1° C. in the dark. After the allotted aging time, the bottles of beer were transferred to a dark refrigerator and stored at approximately 2° to 4° C. until they were analyzed. Additional bottles from the same code were kept unopened in 2° to 4° C. storage. These unopened samples from the same beer code were labeled “Fresh Control” used to provide fresh samples for the trained panel.
At the appropriate times, a trained 7-member panel evaluated the beers. […] Five beers were evaluated at the session—Fresh Control, Aged No Addition, and Aged containing each one of the Labiatae treatments. The overall preference rank, the character and intensity of the aroma, the levels of paper/cardboard aroma and flavor, sour or off flavors, hang and astringency and bitterness quality and intensity were evaluated.

The nature of assay [2]: DCIP redox potential of light beer during pasteurization. The assay is classed as physicochemical. To be noted: for preservation of redox potential during pasteurization: 20 ppm; for Redox Potential: +20 ppm. How it is done: Five bottles of a commercial light beer, 81 days old at the time of the experiment, but having been stored at 2° C. were used in this experiment. The following five treatments were prepared: • 1. An unpasteurized control was prepared by leaving one bottle unopened in the refrigerator until analysis. • 2. Another bottle was opened, 20 ppm carnosic acid was added from a solution made from pure material, and the bottle fobbed and crowned. This sample was also not pasteurized. • 3. A bottle was opened, fobbed to exclude air, and crowned. This sample is designated the No Addition Pasteurized Control. • 4. A bottle was opened and 20 ppm carnosic acid was added from a solution made from pure compound. The bottle was fobbed and crowned and subjected to pasteurization. • 5. A bottle was opened and 20 ppm of rosmarinic acid was added from a solution of pure compound. The bottle was fobbed and crowned and subjected to pasteurization. Treatments 3, 4, and 5 were immersed in an ambient temperature water bath and heated to 60° C. The approximate time to reach 60° C. from ambient was 12 minutes. The bottles remained at 60° C. for 12 minutes. They were then removed and cooled. All five treatments were analyzed by the DCIP-Redox method described in Example 4.

Assay [3] can be described thus: Sensory panel staling scaling of bottled standard American lager. To be noted: 10 ppm (RA/CA: 5 ppm CA + 5 ppm RA). The method, then: A standard American lager and a light lager were purchased commercially. The treatment bottles were opened, dosed, fobbed, crowned and inverted. The control bottles were opened, crowned and inverted. Dosing was performed as follows. One gram of pure antioxidant (corrected for actual purity) was dissolved in 100 mL ethanol and sonicated to make the antioxidant solutions of 1 weight/volume %. The volumes shown in Table 16 show the amount of the antioxidant solutions added to obtain a total of 10 ppm carnosic acid and/or rosmarinic acid in the final beverage formulations.
The sensory data were taken in the following manner. Each treatment sample was presented to the panelists one time each in two different sessions each at a different amount of aging time (5 vs. 10 days). Panelists rated the beers on a scale of 0-10, with 0 being fresh and 10 being most stale. Since the output of the panel as a whole was desired, and not any one individual panelist, the means of each treatment sample in each replicate groups were calculated and tabulated as in Table 17. Samples spiked with known amounts of off-flavors characteristic of the aged standard American lager were used as reference beers. This characterization was done in a separate descriptive session. The characteristic off-flavors in the pilot brewery beer were papery and leathery, and these were each spiked into fresh control beer at 0.75 and 1.5 times the typical flavor threshold.
Statistical analysis consisted of doing paired t-Tests on the treatment sample vs. the aged control sample (Table 18). One-tailed tests were used that probed the question whether the staling values of one treatment were lower than that of the other (e.g treatment vs. control). Confidence levels were reported along with p values.

Assay [4] is described as follows: Phenylacetaldehyde in headspace of aged beer. To be noted: for Phenylacetaldehyde in the headspace of aged beer: 20 ppm (RA + CA: 10 ppm each); for effect on formation of phenylacetaldehyde and 3-methylbutanal: aged beer, 40° C. Type of assay: physicochemical. The method, then:
The highly hopped beer from example 2 was treated with solutions of carnosic acid in ethanol, rosmarinic acid in ethanol or a mixture of carnosic acid and rosmarinic acid in ethanol as done previously. […] The bottles were fobbed to exclude air and crowned. • 3. “20 ppm CA+air” in which bottles were opened and 20 ppm CA added as above. These bottles received two puffs of air in the remaining headspace from a 25 mL bulb. They were crowned without fobbing • 4. “20 ppm RA” in which bottles were opened and 20 ppm rosmarinic acid added from a 2% solution. The bottles were fobbed and crowned. • 5. “20 ppm RA+air” which was done as in No. 4, with 20 ppm RA added. These bottles received the two puffs of air and were crowned without fobbing. • 6. “10 ppm RA+10 ppm CA” in which bottles were opened and 10 ppm each of carnosic and rosmarinic acids were added from pure solutions (178 μL of 2% solution per 12 oz bottle). Bottles were fobbed and crowned. • 7. “10 ppm RA+10 ppm CA+air” in which 10 ppm each of RA and CA was added. This treatment received two puffs of air and was not fobbed before closing. • 8. “Control+air” in which bottles were opened, given two puffs of air and crowned without fobbing. • 9. “Control” in which bottles were opened, fobbed and crowned. Treatments 2 through 9 were stored in a 40° C. hot room. At various times, bottles were opened and samples analyzed for phenylacetaldehyde and 3-methylbutanal by the method of “[…], et al. The results are shown in Table 19.

Assay [5] in a line: Blind sensory triangle panels, model citrus beverage. The method, then: Carbon filtered water was carbonated to 3.5 to 4 times the volume of beer. 59.2 ml of syrup was added to each 355 ml bottle. Each bottle was individually dosed with the treatments listed in Table 22 by adding 1.775 mL of a 1% (weight/volume) solution of carnosol or rosmarinic acid in ethanol to give 50 ppm of each. The bottle was filled to approximately 355 ml with carbonated water before it was capped and inverted. Fresh samples were stored in the refrigerator (0° C.). Heat exposed samples were aged in the oven (32° C.) for seven days. […] Each panel was balanced, with half of the panel given control as the odd sample, the other half of the panel given a treated sample as the odd sample. Panelists were allowed to drink water during the panel.

Where [6] appears, read: pasteurized (60° C. for 12 minutes).
Setting [7] is: Aged Control vs. Aged treated (32° C., seven days), 50 ppm (CA + RA: 50 ppm each).
[8] abbreviates: Fresh Control vs. Fresh treated, 50 ppm.

As to `CC(C)c1cc2c(c(O)c1O)[C@@]1(C(=O)O)CCCC(C)(C)[C@@H]1CC2` [CA, carnosic acid], the “panelists' preference for treated sample over Aged No Addition sample” value in assay [1] is listed as 7 of 7 panelists preferred. Also, the “preservation of fresh flavor (words)” value in assay [1] is “very significantly retards the rate of staling”. Besides, the “preservation of redox potential during pasteurization” value in assay [2] is reported as “held at a higher level than the untreated, unpasteurized control”. Also, the “Redox Potential” value is 67.4 in assay [2] (no pasteurization) and 45.0 in assay [2] (setting [6]). Further, the figures for the “Panelist staling average, Day 5 Average (0 fresh, 10 most stale)” value in assay [3] (Aged) and in assay [3] (Fresh) were 3.00 and 2.89, respectively. The “Panelist staling average, Day 10 Average (0 fresh, 10 most stale)” value in assay [3] (Aged) was 4.375; in assay [3] (Fresh), 2.25. Besides, the “Phenylacetaldehyde in the headspace of aged beer” value (shortened to “Phenylacetaldehyde … of aged beer”) in assay [4] (Day 0, 40° C., + air) is recorded as 30.49 Parts per million; in assay [4] (Day 0, 40° C., no air), 32.76 Parts per million; in assay [4] (Day 3, 40° C., + air) it was 42.05 Parts per million; in assay [4] (Day 3, 40° C., no air) it was 46.34 Parts per million; in assay [4] (Day 7, 40° C., + air), 63.82 Parts per million; in assay [4] (Day 7, 40° C., no air) it was 57.39 Parts per million. Moreover, the “Phenylacetaldehyde … of aged beer” value in assay [4] (Day 14, 40° C., + air) amounted to 25.74 Parts per million; in assay [4] (Day 14, 40° C., no air), 24.75 Parts per million; in assay [4] (Day 21, 40° C., + air), 88.86 Parts per million; in assay [4] (Day 21, 40° C., no air), 52.94 Parts per million. The “effect on formation of phenylacetaldehyde and 3-methylbutanal” value in assay [4] is “dramatic effect in decreasing the formation of these off-flavor compounds”. The “Correct Panelists/Total Panelists (triangle test)” value in assay [5] (setting [7]) is recorded as 9/21; in assay [5] (setting [8]), 9/20.
`O=C(/C=C/c1ccc(O)c(O)c1)O[C@H](Cc1ccc(O)c(O)c1)C(=O)O` [RA, rosmarinic acid]: the “panelists' preference for treated sample over Aged No Addition sample” value in assay [1] was 7 of 7 panelists preferred. Moreover, the “preservation of fresh flavor (words)” value in assay [1] was “very significantly retards the rate of staling”. Further, the “preservation of redox potential during pasteurization” value in assay [2] is reported as “no potential to preserve the redox potential of beer during pasteurization”. Also, the “Redox Potential” value in assay [2] (setting [6]) was found to be 13.4. Moreover, the results for the “Panelist staling average, Day 5 Average (0 fresh, 10 most stale)” value in assay [3] (Aged) and in assay [3] (Fresh) were 3.22 and 0.78, respectively. Further, the figures for the “Panelist staling average, Day 10 Average (0 fresh, 10 most stale)” value in assay [3] (Aged) and in assay [3] (Fresh) were 2.75 and 2.5, respectively. Also, the “Phenylacetaldehyde … of aged beer” value in assay [4] (Day 0, 40° C., + air) is on record as 50.16 Parts per million; in assay [4] (Day 0, 40° C., no air) it was 43.6 Parts per million; in assay [4] (Day 3, 40° C., + air), 48.83 Parts per million; in assay [4] (Day 3, 40° C., no air), 45.83 Parts per million; in assay [4] (Day 7, 40° C., + air), 66.68 Parts per million; in assay [4] (Day 7, 40° C., no air) it was 46.01 Parts per million. In addition, the “Phenylacetaldehyde … of aged beer” value in assay [4] (Day 14, 40° C., + air) is 55.65 Parts per million; in assay [4] (Day 14, 40° C., no air), 52.71 Parts per million; in assay [4] (Day 21, 40° C., + air), 68.89 Parts per million; in assay [4] (Day 21, 40° C., no air), 52.14 Parts per million. For the same compound, the “effect on formation of phenylacetaldehyde and 3-methylbutanal” value in assay [4] is “dramatic effect in decreasing the formation of these off-flavor compounds”. For the same compound, the “Correct Panelists/Total Panelists (triangle test)” value is reported as 12/20 in assay [5] (setting [7]); 12/21 in assay [5] (Fresh Control vs. Aged treated (32° C., seven days), 50 ppm (CA + RA: 50 ppm each)); 10/22 in assay [5] (setting [8]). For the same compound, the “difference from untreated samples detected by triangle panel” value in assay [5] (aged for 7 days) is “significant difference with a 95% confidence level”.
